pIC50: −log10 of the molar value.

For orientation: pIC50 means the IC50 on a negative log10 scale, so that one unit is a factor of ten.

T1 sequence (P22001 whole entry): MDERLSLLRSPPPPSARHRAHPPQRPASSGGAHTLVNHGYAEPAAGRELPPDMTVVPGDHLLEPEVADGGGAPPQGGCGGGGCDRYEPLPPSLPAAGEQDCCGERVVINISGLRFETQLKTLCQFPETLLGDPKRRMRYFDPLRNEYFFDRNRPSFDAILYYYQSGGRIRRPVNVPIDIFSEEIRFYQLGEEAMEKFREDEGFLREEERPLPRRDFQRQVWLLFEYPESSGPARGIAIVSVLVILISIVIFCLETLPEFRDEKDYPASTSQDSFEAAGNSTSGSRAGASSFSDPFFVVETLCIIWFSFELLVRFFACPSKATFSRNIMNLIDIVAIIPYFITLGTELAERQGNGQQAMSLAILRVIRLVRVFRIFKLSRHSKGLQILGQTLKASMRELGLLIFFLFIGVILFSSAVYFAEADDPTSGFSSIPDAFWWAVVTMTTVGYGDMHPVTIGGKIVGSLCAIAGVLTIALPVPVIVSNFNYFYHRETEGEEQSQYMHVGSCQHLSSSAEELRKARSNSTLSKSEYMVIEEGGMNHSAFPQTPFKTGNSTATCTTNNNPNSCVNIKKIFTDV

The assay addresses T1, Kv1.3 potassium channel (Homo sapiens, UniProt P22001).
T1 construct: expressed in transfected cells
The assay can be described thus: Kv1.3 potassium channel blocker activity, automated whole-cell patch clamp (Patchliner). It counts as cell-based. The note with it: Table 6; CHO-K1 cells stably expressing Kv1.3; whole cell current, pulses -90 mV to +40 mV; read-out: Kv1.3_IC50. As for the experimental part:
Example 67. Evaluation of Kv1.3 Potassium Channel Blocker Activities
The assay described below is used to evaluate the disclosed compound's activities as Kv1.3 potassium channel blockers.
CHO-K1 cells stably expressing Kv1.3 were grown in DMEM containing 10% heat-inactivated FBS, 1 mM Sodium Pyruvate, 2 mM L-Glutamine and G418 (500 μg/ml). Cells were grown in culture flasks at 37° C. in a 5% CO2-humidified incubator.
The cells were bathed in an extracellular solution containing 140 mM NaCl, 4 mM KCl, 2 mM CaCl2), 1 mM MgCl2, 5 mM Glucose, 10 mM HEPES; pH adjusted to 7.4 with NaOH; 295-305 mOsm. The internal solution contained 50 mM KCl, 10 mM NaCl, 60 mM KF, 20 mM EGTA, 10 mM HEPES; pH adjusted to 7.2 with KOH; 285 mOsm. All compounds were dissolved in DMSO at 30 mM. Compound stock solutions were freshly diluted with external solution to concentrations of 30 nM, 100 nM, 300 nM, 1 μM, 3 μM, 10 μM, 30 μM and 100 μM. The highest content of DMSO (0.3%) was present in 100 μM.
The currents were evoked by applying 100 ms depolarizing pulses from −90 mV (holding potential) to +40 mV were applied with 0.1 Hz frequency. Control (compound-free) and compound pulse trains for each compound concentration applied contained 20 pulses. 10 second breaks were used between pulse trains (see Table 4 below).
Whole cell current recordings and compound application were enabled by means of an automated patch clamp platform Patchliner (Nanion Technologies GmbH). EPC 10 patch clamp amplifier (HIEKA Elektronik Dr. Schulze GmbH) along with Patchmaster software (HIEKA Elektronik Dr. Schulze GmbH) was used for data acquisition. Data were sampled at 10 kHz without filtering. Passive leak currents were subtracted online using a P/4 procedure (HEKA Elektronik Dr. Schulze GmbH). Increasing compound concentrations were applied consecutively to the same cell without washouts in between. Total compound incubation time before the next pulse train was not longer than 10 seconds. Peak current inhibition was observed during compound equilibration.
AUC and peak values were obtained with Patchmaster (HEKA Elektronik Dr. Schulze GmbH). To determine IC50, the last single pulse in the pulse train corresponding to a given compound concentration was used. Obtained AUC and peak values in the presence of compound were normalized to control values in the absence of compound. Using Origin (OridinLab), IC50 was derived from data fit to Hill equation: Icompound/Icontrol=(100−A)/(1+([compound]/IC50)nH)+A, where IC50 value is the concentration at which current inhibition is half-maximal, [compound] is the applied compound concentration, A is the fraction of current that is not blocked and nH is the Hill coefficient.
For orientation: The patch-clamp technique gives a direct electrical read-out from membranes.
As for `Cc1cnccc1C(O)c1c(O)ccc(Cl)c1Cl` (single isomer, unassigned) [Compound 43, 3,4-dichloro-2-[hydroxy(3-methylpyridin-4-yl)methyl]phenol], the pIC50 was greater than 4.52.

In the case of `Nc1cc(C(O)c2c(O)ccc(Cl)c2Cl)ccn1` (single isomer, unassigned) [Compound 44, 2-[(2-aminopyridin-4-yl)(hydroxy)methyl]-3,4-dichlorophenol], the negative logarithm of the IC50 (pIC50) is greater than 4.52.

Take `NCc1cc(C(O)c2c(O)ccc(Cl)c2Cl)ccn1` (single isomer, unassigned) [Compound 47, 2-((2-(aminomethyl)pyridin-4-yl)(hydroxy)methyl)-3,4-dichlorophenol]: the pIC50 was greater than 4.52.

Take `O=C(NC(c1ccncc1)c1c(O)ccc(Cl)c1Cl)C1CNC1` (single isomer, unassigned) [Compound 49, N-[(2,3-dichloro-6-hydroxyphenyl)(pyridin-4-yl)methyl]azetidine-3-carboxamide]: the pIC50 was greater than 5.00.

For the compound `O=C(N[C@@H](c1ccncc1)c1c(O)ccc(Cl)c1Cl)[C@@H]1CCCN1` (single isomer, unassigned) [Compound 65], the pIC50 is greater than 4.52.

With `O=C(N[C@H](c1ccncc1)c1c(O)ccc(Cl)c1Cl)[C@H]1CCCN1` (single isomer, unassigned) [Compound 66], the pIC50 was greater than 4.52.

On to `O=C(N[C@@H](c1ccncc1)c1c(O)ccc(Cl)c1Cl)[C@H]1CCCN1` (single isomer, unassigned) [Compound 67], for which the pIC50 was greater than 5.00.

Regarding `CN1CC(C(=O)NC(c2ccncc2)c2c(O)ccc(Cl)c2Cl)C1` (single isomer, unassigned) [Compound 72, N-[(2,3-dichloro-6-hydroxyphenyl)(pyridin-4-yl)methyl]-1-methylazetidine-3-carboxamide], the pIC50 is greater than 6.00.

As for `CN1CC(C(=O)NC(c2ccncc2)c2c(O)ccc(Cl)c2Cl)C1` (single isomer, unassigned) [Compound 75, N-[(2,3-dichloro-6-hydroxyphenyl)(pyridin-4-yl)methyl]-1-methylazetidine-3-carboxamide], the pIC50 is greater than 5.00.

Turning to `NC(c1ccccc1)c1c(O)ccc(Cl)c1Cl` (stereo not shown) [Compound 3, 2-[amino(phenyl)methyl]-3,4-dichlorophenol], the pIC50 was greater than 4.52.

In the case of `NC(=O)c1cnccc1Cc1cc(Cl)c(Cl)cc1O` [Compound 4, 4-[(4,5-dichloro-2-hydroxyphenyl)methyl]pyridine-3-carboxamide], the pIC50 was greater than 5.00.

For `NC(c1ccccc1)c1cc(Cl)c(Cl)cc1O` (stereo not shown) [Compound 5, 2-[amino(phenyl)methyl]-4,5-dichlorophenol], the pIC50 is greater than 4.52.

As to `NC(c1cn[nH]c1)c1c(O)ccc(Cl)c1Cl` (stereo not shown) [Compound 7, 2-[amino(1H-pyrazol-4-yl)methyl]-3,4-dichlorophenol], the pIC50 is greater than 4.52.

Take `NC(c1cn[nH]c1)c1cc(Cl)c(Cl)cc1O` (stereo not shown) [Compound 10, 2-[amino(1H-pyrazol-4-yl)methyl]-4,5-dichlorophenol]: the pIC50 was greater than 5.00.

Consider `Nc1ccc(C(N)c2cc(Cl)c(Cl)cc2O)cn1` (stereo not shown) [Compound 12, 2-[amino(6-aminopyridin-3-yl)methyl]-4,5-dichlorophenol], for which the pIC50 is greater than 5.00.

Turning to `NC(=O)c1ccc(C(N)c2cc(Cl)c(Cl)cc2O)cc1` (stereo not shown) [Compound 13, 4-[amino(4,5-dichloro-2-hydroxyphenyl)methyl]benzamide], the pIC50 is greater than 5.00.

With `Nc1ccc(C(N)c2c(O)ccc(Cl)c2Cl)cn1` (stereo not shown) [Compound 14, 2-[amino(6-aminopyridin-3-yl)methyl]-3,4-dichlorophenol], the pIC50 was greater than 5.00.

As to `NC(c1ccc(=O)[nH]c1)c1cc(Cl)c(Cl)cc1O` (stereo not shown) [Compound 15, 5-[amino(4,5-dichloro-2-hydroxyphenyl)methyl]-1,2-dihydropyridin-2-one], the pIC50 was greater than 5.00.

In the case of `N#Cc1ccc(C(N)c2cc(Cl)c(Cl)cc2O)cc1` (stereo not shown) [Compound 16, 4-[amino(4,5-dichloro-2-hydroxyphenyl)methyl]benzonitrile], the pIC50 was greater than 5.00.

As for `CC(=O)NC(c1ccncc1)c1cc(Cl)c(Cl)cc1O` (stereo not shown) [Compound 19, N-[(4,5-dichloro-2-hydroxyphenyl)(pyridin-4-yl)methyl]acetamide], the pIC50 was greater than 5.00.

With `Oc1ccc(Cl)c(Cl)c1Cc1ccncc1` [Compound 22, 3,4-dichloro-2-[(pyridin-4-yl)methyl]phenol], the pIC50 is greater than 5.00.

`NC(=O)c1cc(C(O)c2c(O)ccc(Cl)c2Cl)ccn1` (stereo not shown) [Compound 23, 4-[(2,3-dichloro-6-hydroxyphenyl)(hydroxy)methyl]pyridine-2-carboxamide]: the pIC50 is greater than 5.00.

`NC(=O)c1cc(Cc2c(O)ccc(Cl)c2Cl)ccn1` [Compound 24, 4-[(2,3-dichloro-6-hydroxyphenyl)methyl]pyridine-2-carboxamide]: the pIC50 was greater than 5.00.

With `CC(c1ccncc1)c1c(O)ccc(Cl)c1Cl` (stereo not shown) [Compound 25, 3,4-dichloro-2-[1-(pyridin-4-yl)ethyl]phenol], the pIC50 was greater than 5.00.

`N#Cc1cc(C(O)c2c(O)ccc(Cl)c2Cl)ccn1` (stereo not shown) [Compound 30, 4-[(2,3-dichloro-6-hydroxyphenyl)(hydroxy)methyl]pyridine-2-carbonitrile]: the pIC50 was greater than 5.00.

As to `Oc1ccc2ccccc2c1C(O)c1ccncc1` (stereo not shown) [Compound 32, 1-[hydroxyl(pyridin-4-yl)methyl]naphthalen-2-ol], the pIC50 was greater than 5.00.

Consider `CC(=O)NCc1cc(C(O)c2c(O)ccc(Cl)c2Cl)ccn1` (stereo not shown) [Compound 33, N-([4-[(2,3-dichloro-6-hydroxyphenyl)(hydroxy)methyl]pyridin-2-yl]methyl)acetamide], for which the negative-log IC50 (pIC50) is greater than 5.00.

Regarding `Cc1cc(C(O)c2c(O)ccc(Cl)c2Cl)ccn1` (stereo not shown) [Compound 35, 3,4-dichloro-2-[hydroxy(2-methylpyridin-4-yl)methyl]phenol], the pIC50 was greater than 5.00.

On to `Oc1ccc(Cl)c(Cl)c1C(O)c1ccc2cc[nH]c2c1` (stereo not shown) [Compound 48, 3,4-dichloro-2-[hydroxy(1H-indol-6-yl)methyl]phenol], for which the pIC50 is greater than 5.00.

Consider `Oc1ccc(Cl)c(Cl)c1C(O)c1cccc2[nH]ccc12` (stereo not shown) [Compound 51, 3,4-dichloro-2-[hydroxy(1H-indol-4-yl)methyl]phenol], for which the negative logarithm of the IC50 (pIC50) is greater than 5.00.

On to `Oc1ccc(Cl)c(Cl)c1C(O)c1ccc2[nH]ccc2c1` (stereo not shown) [Compound 52, 3,4-dichloro-2-[hydroxy(1H-indol-5-yl)methyl]phenol], for which the pIC50 was greater than 4.52.

With `Oc1ccc(Cl)c(Cl)c1C(O)c1cnccn1` (stereo not shown) [Compound 54, 3,4-dichloro-2-[hydroxy(pyrazin-2-yl)methyl]phenol], the pIC50 is greater than 5.00.

As for `Oc1ccc(Cl)c(Cl)c1C(O)c1ccncn1` (stereo not shown) [Compound 55, 3,4-dichloro-2-[hydroxy(pyrimidin-4-yl)methyl]phenol], the pIC50 was greater than 5.00.

On to `Oc1ccc(Cl)c(Cl)c1C(O)c1cn[nH]c1` (stereo not shown) [Compound 56, 3,4-dichloro-2-[hydroxy(1H-pyrazol-4-yl)methyl]phenol], for which the pIC50 was greater than 5.00.

As to `O=C(NC(c1ccncc1)c1c(O)ccc(Cl)c1Cl)c1cn[nH]c1` (stereo not shown) [Compound 57, N-[(2,3-dichloro-6-hydroxyphenyl)(pyridin-4-yl)methyl]-1H-pyrazole-4-carboxamide], the pIC50 was greater than 4.52.

For `Oc1ccc(Cl)c(Cl)c1C(O)c1ccnc(N2CCOCC2)c1` (stereo not shown) [Compound 58, 3,4-dichloro-2-[hydroxy[2-(morpholin-4-yl)pyridin-4-yl]methyl]phenol], the pIC50 is greater than 5.00.

Consider `Oc1ccc(Cl)c(Cl)c1C(O)c1c[nH]c2ccccc12` (stereo not shown) [Compound 59, 3,4-dichloro-2-[hydroxy(1H-indol-3-yl)methyl]phenol], for which the pIC50 is greater than 4.52.

Take `Cn1cc(C(O)c2c(O)ccc(Cl)c2Cl)ccc1=O` (stereo not shown) [Compound 60, 5-[(2,3-dichloro-6-hydroxyphenyl)(hydroxy)methyl]-1-methyl-1,2-dihydropyridin-2-one]: the negative logarithm of the IC50 (pIC50) was greater than 6.00.

As to `O=C(c1ccncc1)c1c(O)ccc(Cl)c1Cl` [Compound 61, 3,4-dichloro-2-(pyridine-4-carbonyl)phenol], the pIC50 was greater than 5.00.

Consider `Nc1ccc(Cl)c(Cl)c1C(=O)c1ccncc1` [Compound 62, 3,4-dichloro-2-(pyridine-4-carbonyl)aniline], for which the pIC50 was greater than 5.00.
